Publication PMC7736581, “Activation of the IRE1 RNase through remodeling of the kinase front pocket by ATP-competitive ligands” (Nature Communications, 2020)
Read-outs that look alike come from different tables or passages of the source.

Key:
[1] = system: T1, IRE1 (endogenous, KMS-11); experiment: cells; parameters: XBP1s mRNA by branched DNA assay in KMS-11 cell lysates after compound treatment; details: Homo sapiens, KMS-11, 4 h
T1 construct: endogenous full-length in KMS-11 cells
Description: 15-20k KMS-11 cells in RPMI growth media were seeded into 96-well plates and treated with compounds or DMSO control over a period of 4 h the following day. RNA levels of XBP1s and DGAT2 in KMS-11 cell lysates were measured using the QuantiGene 2.0 bDNA assay technology (Thermofisher). See Supplementary Table 4 for sequences of relevant capture probes. Data analysis was carried out against an assay background control with no cell lysate (no-RNA control). In the case of AMG-18, cells were also stimulated with thapsigargin (Tg, 100 nM) 30 min after compound addition. No Tg was used when treating cells with all other compounds. Samples were run in duplicate. To investigate whether this peculiar conformation had any role in the mechanism of activation of G-1749, we evaluated different tails to substitute the ethyl carbamate on the naphthyl moiety (Fig. 3, Supplementary Table 2). […] This is likely due to clashes with residues lining the front pocket, which in turn would force the tails to occupy the back pocket and break the salt bridge, thereby causing RNase inhibition. […] Experiments in KMS-11 cells (Fig. 3b, c, right panels) confirmed the effect of these tail modifications on IRE1 RNase activation. […] The chemical substituents tolerated by the front pocket seem to be very limited: even a minor substitution of the carbamate oxygen atom to a larger [compound left out], from ethyl carbamate to propyl amide (compound 6), or from methyl carbamate to methyl or ethyl amide (compound 4 or 5, respectively), or increasing the tail length by one atom, from ethyl to propyl carbamate (compound 11), is enough to impart a switch from activation to inhibition (Fig. 3b, c). […] RNA cleavage was measured by a kinetic fluorescence assay using an XBP1-like RNA hairpin substrate and IRE1 LKR construct (Q470-L977). Background from the no-protein control was subtracted from signal before calculating fold change. Source data are provided as a Source Data file. Data are presented as the mean for measurements from two independent experiments (n = 2). c RNA levels for IRE1 RNase product XBP1s measured by bDNA assay of lysates from KMS-11 cells treated with compounds for 4 h. Background from the no-RNA control was subtracted from signal before calculating fold change. Source data are provided as a Source Data file. Data are presented as the mean for measurements from two independent experiments (n = 2). d, e Analytical Ultracentrifugation sedimentation velocity (SV-AUC) experiments for (d), IRE1 LKR (Q470-L977) unphosphorylated and autophosphorylated and (e), IRE1 LKR unphosphorylated in the presence of slight excess G-9807 and G-1749. Calculated sedimentation coefficients for IRE1 monomer (3.1 svedbergs) and dimer (4.6 svedbergs) are highlighted by dotted lines. Source data are provided as a Source Data file.

PKD1 = biological target: T2, PKD1 (Homo sapiens, UniProt Q15139); experiment: biochemical; parameters: Invitrogen kinase panel: Z'Lyte activity (ATP at Km) or LanthaScreen competitive ATP-site binding, percent inhibition
T2 construct: gene PRKD1
T2 sequence (Q15139 1-912): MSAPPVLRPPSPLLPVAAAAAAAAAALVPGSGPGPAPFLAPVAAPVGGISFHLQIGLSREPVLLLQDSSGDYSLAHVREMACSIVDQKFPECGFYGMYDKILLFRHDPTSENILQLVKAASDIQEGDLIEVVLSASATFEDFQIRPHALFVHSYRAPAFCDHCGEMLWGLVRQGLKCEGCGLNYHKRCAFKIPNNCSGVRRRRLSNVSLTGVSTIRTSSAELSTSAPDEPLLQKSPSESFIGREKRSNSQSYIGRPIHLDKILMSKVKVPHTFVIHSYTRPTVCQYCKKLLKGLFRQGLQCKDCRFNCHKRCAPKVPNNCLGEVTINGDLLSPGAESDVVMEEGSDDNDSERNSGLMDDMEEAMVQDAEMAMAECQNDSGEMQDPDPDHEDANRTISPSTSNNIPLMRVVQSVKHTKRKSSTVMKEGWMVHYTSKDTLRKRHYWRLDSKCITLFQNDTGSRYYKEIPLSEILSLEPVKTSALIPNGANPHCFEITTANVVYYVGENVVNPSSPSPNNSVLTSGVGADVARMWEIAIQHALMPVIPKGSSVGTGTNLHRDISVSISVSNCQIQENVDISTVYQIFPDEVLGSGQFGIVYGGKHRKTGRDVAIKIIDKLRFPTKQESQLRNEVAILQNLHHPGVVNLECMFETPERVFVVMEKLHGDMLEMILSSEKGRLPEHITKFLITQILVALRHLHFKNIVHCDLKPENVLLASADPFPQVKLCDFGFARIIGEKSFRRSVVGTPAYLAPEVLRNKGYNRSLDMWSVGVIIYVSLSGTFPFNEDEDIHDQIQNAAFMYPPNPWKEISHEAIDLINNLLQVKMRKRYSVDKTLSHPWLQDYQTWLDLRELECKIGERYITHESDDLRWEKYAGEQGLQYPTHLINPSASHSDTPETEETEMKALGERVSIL

MEK1 = biological target: T3, MEK1 (Homo sapiens, UniProt Q02750); experiment: biochemical; parameters: Invitrogen kinase panel: Z'Lyte activity (ATP at Km) or LanthaScreen competitive ATP-site binding, percent inhibition
T3 construct: gene MAP2K1

[2] = XBP1s mRNA increase, read-out: EC50 (KMS-11 bDNA assay, XBP1s), activators

T3 sequence (Q02750 whole entry): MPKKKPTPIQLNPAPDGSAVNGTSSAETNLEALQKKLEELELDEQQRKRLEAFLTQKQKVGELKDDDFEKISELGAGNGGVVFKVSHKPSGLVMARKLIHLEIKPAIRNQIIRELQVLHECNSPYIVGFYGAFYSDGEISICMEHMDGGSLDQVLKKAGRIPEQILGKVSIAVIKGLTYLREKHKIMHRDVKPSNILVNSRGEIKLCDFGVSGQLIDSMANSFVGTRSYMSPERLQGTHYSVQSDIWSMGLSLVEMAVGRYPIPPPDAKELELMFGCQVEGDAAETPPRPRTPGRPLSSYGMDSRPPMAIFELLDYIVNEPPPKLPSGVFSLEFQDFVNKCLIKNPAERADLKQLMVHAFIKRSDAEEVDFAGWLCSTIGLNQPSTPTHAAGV

EC50 ([1]; 100 nM thapsigargin stimulation, XBP1s mRNA decrease, read-out: EC50 (KMS-11 bDNA assay, XBP1s), inhibitors) [nM] | inhibition at 1 µM (PKD1) [%] | inhibition at 1 µM (MEK1) [%] | EC50 [1, 2] [nM] | Compound
193 ± 36 |  |  |  | Cc1ccc2c(NS(=O)(=O)c3ccccc3Cl)cccc2c1Oc1ncccc1-c1ccnc(N[C@H]2CCCNC2)n1 [AMG-18]
 | 31 | 0.5 | 223 ± 33 | CC#CC(=O)Nc1cccc2c(Oc3ncccc3-c3ccnc(N[C@H]4CCCNC4)n3)c(C)ccc12 [G-7658]
 | 97.5 | 95.4 | 1770 ± 691 | O=c1cc(-c2n[nH]c3ncc(-c4c(F)cccc4F)cc23)nc(N2CCC(O)CC2)[nH]1 [G-9807]

Compound | EC50 ([1]; 100 nM thapsigargin stimulation, XBP1s mRNA decrease, read-out: EC50 (KMS-11 bDNA assay, XBP1s), inhibitors) [nM] | inhibition at 1 µM (PKD1) [%] | inhibition at 1 µM (MEK1) [%] | EC50 [1, 2] [nM]
CCOC(=O)Nc1cccc2c(Oc3ncccc3-c3ccnc(N[C@H]4CCCNC4)n3)c(C)ccc12 [G-1749] |  | 33.5 | 2 | 1310 ± 168
